Laboratory results from US12371428B2 (Exelixis, Inc., priority 2019, dated 2025).
Counter-ions that a name gives are not always drawn. Like-named read-outs stand apart in the source and are kept apart here.

What was measured:
[1] = molecular target: Human KDR (residues 790-1356) (Homo sapiens (Human), UniProt P35968); test: Human KDR kinase assay, HTRF KinEase (Example B-2); format: biochemical
Procedure, shortened: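 Ten compound concentrations (3% DMSO final) were pre-plated, then KDR (790-1356) with biotinylated peptide in Mg/Mn/DTT buffer was added; ATP at Km (4.0 μM) started a 40 min room-temperature reaction. Detection used Eu-TK antibody and SA-XL665 in EDTA buffer; activity normalized to DMSO and reference inhibitor, IC50 by logistic fit.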

[2] = molecular target: Human MER (residues 528-999) (Homo sapiens (Human), UniProt Q12866); test: Human Mer kinase assay, HTRF KinEase (Example C-2); format: biochemical
Procedure, shortened: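 Recombinant MER 528-999 (1 ng/well) in buffer with 5 mM MgCl2 and 1 mM DTT was reacted with biotinylated peptide and ATP at Km (40 μM) for 60 min at room temperature. EDTA stop with SA-XL665 and Eu3+ TK antibody, then 665/620 nm HTRF read; IC50 from 4-parameter fit.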

[3] = molecular target: Human MET (residues 956-1390) (Homo sapiens (Human), UniProt P08581); test: Human Met kinase assay, HTRF KinEase (Example D-2); format: biochemical; conditions: read-out: c-Met IC50
Procedure, shortened: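 MET kinase domain (956-1390), 0.1 ng/well, in buffer with 5 mM MgCl2, 1 mM DTT and 1 mM MnCl2, phosphorylated a biotinylated peptide at ATP Km for 40 min at RT; 10 concentrations, 3% DMSO final. EDTA-stopped HTRF read after 60 min; IC50 from a 4-parameter logistic fit.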

[4] = molecular target: Mer (phospho-Mer, MERTK-transfected 293A cells) (Homo sapiens (Human), UniProt Q12866); test: Mer autophosphorylation ELISA in transient transfected 293A cells (Example H); format: cell-based; conditions: cellular activity; Mer autophosphorylation ELISA in transient transfected 293A cells
Procedure, shortened: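 IC50 from phospho-Mer ELISA of MERTK-transfected 293A cell lysates after 1 h treatment with serially diluted compound in serum-free medium.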

[5] = protocol of Example B-2 (other compounds)
[6] = protocol of Example C-2 (other compounds)
[7] = protocol of Example D-2 (other compounds)

Sequence of Human KDR (residues 790-1356) (P35968 790-1356): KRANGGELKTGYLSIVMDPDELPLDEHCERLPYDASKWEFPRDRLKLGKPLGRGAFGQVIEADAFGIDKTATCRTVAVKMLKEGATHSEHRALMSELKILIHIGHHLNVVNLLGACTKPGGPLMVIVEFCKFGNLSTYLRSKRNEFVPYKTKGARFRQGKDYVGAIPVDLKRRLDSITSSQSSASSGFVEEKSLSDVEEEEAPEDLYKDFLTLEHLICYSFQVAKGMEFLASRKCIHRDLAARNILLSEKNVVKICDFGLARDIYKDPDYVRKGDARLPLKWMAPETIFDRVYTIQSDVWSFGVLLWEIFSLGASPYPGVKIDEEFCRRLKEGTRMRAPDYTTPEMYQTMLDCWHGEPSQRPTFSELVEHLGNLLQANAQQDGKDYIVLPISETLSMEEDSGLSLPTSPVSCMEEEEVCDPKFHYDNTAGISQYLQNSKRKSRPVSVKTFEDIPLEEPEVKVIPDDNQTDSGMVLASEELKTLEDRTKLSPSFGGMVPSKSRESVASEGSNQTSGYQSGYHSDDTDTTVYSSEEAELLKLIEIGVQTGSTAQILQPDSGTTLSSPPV
Sequence of Human MER (residues 528-999) (Q12866 528-999): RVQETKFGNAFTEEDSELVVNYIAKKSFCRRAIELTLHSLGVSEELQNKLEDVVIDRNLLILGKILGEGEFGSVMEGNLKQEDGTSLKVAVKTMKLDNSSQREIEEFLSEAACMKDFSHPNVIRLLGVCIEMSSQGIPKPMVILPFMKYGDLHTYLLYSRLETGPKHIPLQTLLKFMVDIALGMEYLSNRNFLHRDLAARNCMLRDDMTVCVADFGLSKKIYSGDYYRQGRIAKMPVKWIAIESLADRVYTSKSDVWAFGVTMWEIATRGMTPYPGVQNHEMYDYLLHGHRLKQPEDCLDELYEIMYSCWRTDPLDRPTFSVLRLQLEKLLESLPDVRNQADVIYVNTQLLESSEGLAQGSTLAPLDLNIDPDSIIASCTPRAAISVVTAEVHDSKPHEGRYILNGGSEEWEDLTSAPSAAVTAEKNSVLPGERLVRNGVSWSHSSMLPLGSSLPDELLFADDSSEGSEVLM
Sequence of Mer (phospho-Mer, MERTK-transfected 293A cells) (Q12866 21-999): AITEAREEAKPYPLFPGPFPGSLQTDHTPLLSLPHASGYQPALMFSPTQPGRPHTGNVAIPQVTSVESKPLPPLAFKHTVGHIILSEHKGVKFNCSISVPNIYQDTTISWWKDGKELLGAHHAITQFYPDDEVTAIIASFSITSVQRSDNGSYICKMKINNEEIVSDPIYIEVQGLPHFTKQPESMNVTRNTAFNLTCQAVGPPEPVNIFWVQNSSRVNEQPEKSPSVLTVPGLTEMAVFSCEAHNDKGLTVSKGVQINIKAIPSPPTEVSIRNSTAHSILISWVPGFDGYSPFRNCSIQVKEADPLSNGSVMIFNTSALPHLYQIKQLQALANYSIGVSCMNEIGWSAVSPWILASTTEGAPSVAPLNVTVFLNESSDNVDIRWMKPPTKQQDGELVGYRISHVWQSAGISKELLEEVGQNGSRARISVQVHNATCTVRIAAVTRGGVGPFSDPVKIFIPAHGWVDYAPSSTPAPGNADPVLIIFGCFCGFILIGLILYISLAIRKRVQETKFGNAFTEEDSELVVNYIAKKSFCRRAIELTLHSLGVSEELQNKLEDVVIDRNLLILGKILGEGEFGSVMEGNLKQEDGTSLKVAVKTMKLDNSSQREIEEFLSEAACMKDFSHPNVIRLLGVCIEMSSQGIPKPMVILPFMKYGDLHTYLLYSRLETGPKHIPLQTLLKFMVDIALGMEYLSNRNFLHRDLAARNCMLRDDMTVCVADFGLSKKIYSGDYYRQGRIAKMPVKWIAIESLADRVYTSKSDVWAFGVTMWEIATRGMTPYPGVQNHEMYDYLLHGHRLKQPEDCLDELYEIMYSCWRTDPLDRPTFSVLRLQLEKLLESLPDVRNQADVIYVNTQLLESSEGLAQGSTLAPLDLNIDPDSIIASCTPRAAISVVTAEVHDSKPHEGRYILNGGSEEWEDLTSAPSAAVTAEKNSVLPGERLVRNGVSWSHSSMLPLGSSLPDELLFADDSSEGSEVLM
Sequence of Human MET (residues 956-1390) (P08581 956-1390): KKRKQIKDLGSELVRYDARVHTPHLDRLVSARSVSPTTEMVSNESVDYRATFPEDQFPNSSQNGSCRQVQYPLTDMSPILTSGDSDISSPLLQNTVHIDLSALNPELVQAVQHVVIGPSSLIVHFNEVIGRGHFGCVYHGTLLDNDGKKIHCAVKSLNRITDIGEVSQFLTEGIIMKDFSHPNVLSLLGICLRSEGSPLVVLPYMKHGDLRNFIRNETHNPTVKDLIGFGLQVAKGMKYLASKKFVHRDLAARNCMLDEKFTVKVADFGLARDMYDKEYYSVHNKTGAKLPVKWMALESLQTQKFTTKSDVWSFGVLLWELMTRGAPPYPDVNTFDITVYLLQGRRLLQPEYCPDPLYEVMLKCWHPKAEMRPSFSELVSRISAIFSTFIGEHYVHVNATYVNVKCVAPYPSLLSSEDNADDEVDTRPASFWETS

| SMILES | IC50 [1, 5] [nM] | IC50 [2, 6] [nM] | IC50 [3, 7] [nM] | IC50 [4] [nM] | IC50 ([1]; protocol of Example B-2) [nM] | IC50 ([2]; protocol of Example C-2) [nM] | IC50 ([3]; protocol of Example D-2) [nM] |
| --- | --- | --- | --- | --- | --- | --- | --- |
| COc1cc2nccc(Oc3ccc(NC(=O)c4cnc(C)c(-c5ccc(F)cc5)c4O)cc3F)c2nc1OC [Compound 28, N-[4-[(6,7-Dimethoxy-1,5-naphthyridin-4-yl)oxy]-3-fluorophenyl]-5-(4-fluorophenyl)-4-hydroxy-6-methylpyridine-3-carboxamide] | < 100 | < 100 | < 100 | < 100 | – | – | – |
| COc1cc2nccc(Oc3ccc(NC(=O)c4cn(C(C)C)c(C)c(-c5ccc(F)cc5)c4=O)cc3F)c2nc1O [Compound 580, N-[3-Fluoro-4-[(6-hydroxy-7-methoxy-1,5-naphthyridin-4-yl)oxy]phenyl]-5-(4-fluorophenyl)-6-methyl-4-oxo-1-propan-2-ylpyridine-3-carboxamide] | – | – | – | < 100 | > 300 | < 100 | < 100 |
| CCn1cc(C(=O)Nc2ccc(Oc3ccnc4cc(OC)c(OC)nc34)cc2)c(=O)c(-c2ccc(F)cc2)c1C [Compound 168, N-[4-[(6,7-Dimethoxy-1,5-naphthyridin-4-yl)oxy]phenyl]-1-ethyl-5-(4-fluorophenyl)-6-methyl-4-oxopyridine-3-carboxamide] | 100 to 300 | < 100 | < 100 | < 100 | – | – | – |
| COc1cc2nccc(Oc3ccc(NC(=O)c4cnc(N)n(-c5ccc(F)cc5)c4=O)cc3F)c2nc1OC [Compound 565, 2-Amino-N-[4-[(6,7-dimethoxy-1,5-naphthyridin-4-yl)oxy]-3-fluorophenyl]-1-(4-fluorophenyl)-6-oxopyrimidine-5-carboxamide] | – | – | – | < 100 | < 100 | < 100 | < 100 |
| COc1cc2c(Oc3ccc(NC(=O)c4cnc(C)c(-c5ccc(F)cc5)c4O)cc3F)ccnc2cn1 [Compound 639, N-[3-fluoro-4-[(6-methoxy-1,7-naphthyridin-4-yl)oxy]phenyl]-5-(4-fluorophenyl)-4-hydroxy-6-methylpyridine-3-carboxamide] | – | – | – | < 100 | > 300 | < 100 | < 100 |
| CCn1cc(C(=O)Nc2ccc(Oc3ccnc4cc(OC)cnc34)cc2)c(=O)c(-c2ccc(F)cc2)c1C [Compound 163, 1-Ethyl-5-(4-fluorophenyl)-N-[4-[(7-methoxy-1,5-naphthyridin-4-yl)oxy]phenyl]-6-methyl-4-oxopyridine-3-carboxamide] | > 300 | < 100 | < 100 | < 100 | – | – | – |
| CNC(=O)c1cnc2c(Oc3ccc(NC(=O)c4cnc(C)c(-c5ccc(F)cc5)c4O)cc3F)ccnc2c1 [Compound 578, 8-[2-Fluoro-4-[[5-(4-fluorophenyl)-4-hydroxy-6-methylpyridine-3-carbonyl]amino]phenoxy]-N-methyl-1,5-naphthyridine-3-carboxamide] | – | – | – | > 300 | 100 to 300 | < 100 | < 100 |
| Cc1nc(C)c(-c2ccc(F)cc2)c(O)c1C(=O)Nc1ccc(Oc2ccnc3cc(C(C)C)cnc23)cc1 [Compound 598, 5-(4-Fluorophenyl)-4-hydroxy-2,6-dimethyl-N-[4-[(7-propan-2-yl-1,5-naphthyridin-4-yl)oxy]phenyl]pyridine-3-carboxamide] | – | – | – | < 100 | 100 to 300 | < 100 | < 100 |
| Cc1nc2c(Oc3ccc(NC(=O)c4cn(C(C)C)c(C)c(-c5ccc(F)cc5)c4=O)cc3F)ccnc2cc1-c1cnn(C(F)F)c1 [Compound 614, N-[4-[[7-[1-(Difluoromethyl)pyrazol-4-yl]-6-methyl-1,5-naphthyridin-4-yl]oxy]-3-fluorophenyl]-5-(4-fluorophenyl)-6-methyl-4-oxo-1-propan-2-ylpyridine-3-carboxamide hydrochloride] | – | – | – | < 100 | > 300 | < 100 | < 100 |
| COCCOc1nc2c(Oc3ccc(NC(=O)c4cnc(C)c(-c5ccc(F)cc5C)c4O)cc3F)ccnc2cc1OC [Compound 144, N-[3-Fluoro-4-[[7-methoxy-6-(2-methoxyethoxy)-1,5-naphthyridin-4-yl]oxy]phenyl]-5-(4-fluoro-2-methylphenyl)-4-hydroxy-6-methylpyridine-3-carboxamide] | < 100 | < 100 | < 100 | < 100 | – | – | – |
| Cc1ncc(C(=O)Nc2ccc(Oc3ccnc4cnccc34)cc2)c(O)c1-c1ccc(F)cc1 [Compound 643, 5-(4-fluorophenyl)-4-hydroxy-6-methyl-N-[4-(1,7-naphthyridin-4-yloxy)phenyl]pyridine-3-carboxamide] | – | – | – | < 100 | < 100 | < 100 | < 100 |
| CCn1cc(C(=O)Nc2ccc(Oc3ccnc4cc(OC)cnc34)c(F)c2)c(=O)c(-c2ccc(F)cc2)c1 [Compound 170, 1-Ethyl-N-[3-fluoro-4-[(7-methoxy-1,5-naphthyridin-4-yl)oxy]phenyl]-5-(4-fluorophenyl)-4-oxopyridine-3-carboxamide] | > 300 | < 100 | < 100 | < 100 | – | – | – |
| COc1cnc2c(Oc3ccc(NC(=O)c4cn(OC)cc(-c5ccc(F)cc5)c4=O)cc3F)ccnc2c1 [Compound 128, N-[3-Fluoro-4-[(7-methoxy-1,5-naphthyridin-4-yl)oxy]phenyl]-5-(4-fluorophenyl)-1-methoxy-4-oxopyridine-3-carboxamide] | 100 to 300 | < 100 | < 100 | < 100 | – | – | – |
| COc1cc2ncnc(Oc3ccc(NC(=O)c4cn(-c5cnn(C)c5)cc(-c5ccc(F)cc5)c4=O)cc3F)c2nc1OC [Compound 637, N-[4-(6,7-dimethoxyprido[3,2-d]pyrimidin-4-yl)oxy-3-fluorophenyl]-5-(4-fluorophenyl)-1-(1-methylpyrazol-4-yl)-4-oxopyridine-3-carboxamide] | – | – | – | < 100 | > 300 | < 100 | < 100 |
| COc1cc2nccc(Oc3ccc(NC(=O)c4cn(C(C)C)c(C)c(-c5ccccc5)c4=O)cc3F)c2nc1OC [Compound 29, N-[4-[(6,7-Dimethoxy-1,5-naphthyridin-4-yl)oxy]-3-fluorophenyl]-6-methyl-4-oxo-5-phenyl-1-propan-2-ylpyridine-3-carboxamide hydrochloride] | < 100 | < 100 | < 100 | < 100 | – | – | – |
| Cc1nc2c(Oc3ccc(NC(=O)c4cnc(C)c(-c5ccc(F)cc5)c4O)cc3)ccnc2cc1-c1cnn(C(F)F)c1 [Compound 617, N-[4-[[7-[1-(Difluoromethyl)pyrazol-4-yl]-6-methyl-1,5-naphthyridin-4-yl]oxy]phenyl]-5-(4-fluorophenyl)-4-hydroxy-6-methylpyridine-3-carboxamide hydrochloride] | – | – | – | < 100 | 100 to 300 | < 100 | < 100 |
| CCc1nc2c(Oc3ccc(NC(=O)c4cnc(C)c(-c5ccc(F)cc5)c4O)cc3F)ccnc2cc1OC [Compound 589, N-[4-[(6-Ethyl-7-methoxy-1,5-naphthyridin-4-yl)oxy]-3-fluorophenyl]-5-(4-fluorophenyl)-4-hydroxy-6-methylpyridine-3-carboxamide] | – | – | – | < 100 | < 100 | < 100 | < 100 |
| COc1cnc2c(Oc3ccc(NC(=O)c4cn(C(C)(C)C)c(C)c(-c5ccc(F)cc5)c4=O)cc3F)ccnc2c1 [Compound 166, 1-tert-Butyl-N-[3-fluoro-4-[(7-methoxy-1,5-naphthyridin-4-yl)oxy]phenyl]-5-(4-fluorophenyl)-6-methyl-4-oxopyridine-3-carboxamide] | > 300 | < 100 | < 100 | < 100 | – | – | – |
| COc1cc2nccc(Oc3ccc(NC(=O)c4cnc(C)c(-c5ccc(F)cc5)c4O)cc3)c2nc1OC [Compound 119, N-[4-[(6,7-Dimethoxy-1,5-naphthyridin-4-yl)oxy]phenyl]-5-(4-fluorophenyl)-4-hydroxy-6-methylpyridine-3-carboxamide] | < 100 | < 100 | < 100 | < 100 | – | – | – |
| COc1cc2ncnc(Oc3ccc(NC(=O)c4cn(C(C)C)cc(-c5ccc(F)cc5)c4=O)cc3F)c2nc1OC [Compound 636, N-[4-(6,7-dimethoxypyrido[3,2-d]pyrimidin-4-yl)oxy-3-fluorophenyl]-5-(4-fluorophenyl)-4-oxo-1-propan-2-ylpyridine-3-carboxamide] | – | – | – | < 100 | < 100 | < 100 | < 100 |
